Source: patent US20050063940A1, “Bioadhesive agent” (priority 2002, published 2005)

Experiment: Cross-over study of drug A blood levels with 1% Softigen or 1% Labrasol formulation
Design: species or system rabbits
Conditions: rabbit, in vivo
Protocol: In a cross-over study, 4 rabbits received drug A in a formulation containing 1% Softigen® (Sasol GmbH, Germany) (n=4) and 1% Labrasol® (Gattefosse, France) (n=4) and were sampled for blood samples after 0, 2, 5, 10, 15, 30, 45 and 60 min.

- tmax: 6 min
Substance: macrogol-6-glycerol-caprylocaprate [PEG6-CCG]
